According to ChEMBL document CHEMBL4507268 (2021):

Assays:
Conditions in all cases: Compound concentration 1.0 uM
[1] = molecular target: T1, Ephrin type-B receptor 1 (Homo sapiens) (UniProt P54762)
T1 sequence (whole entry): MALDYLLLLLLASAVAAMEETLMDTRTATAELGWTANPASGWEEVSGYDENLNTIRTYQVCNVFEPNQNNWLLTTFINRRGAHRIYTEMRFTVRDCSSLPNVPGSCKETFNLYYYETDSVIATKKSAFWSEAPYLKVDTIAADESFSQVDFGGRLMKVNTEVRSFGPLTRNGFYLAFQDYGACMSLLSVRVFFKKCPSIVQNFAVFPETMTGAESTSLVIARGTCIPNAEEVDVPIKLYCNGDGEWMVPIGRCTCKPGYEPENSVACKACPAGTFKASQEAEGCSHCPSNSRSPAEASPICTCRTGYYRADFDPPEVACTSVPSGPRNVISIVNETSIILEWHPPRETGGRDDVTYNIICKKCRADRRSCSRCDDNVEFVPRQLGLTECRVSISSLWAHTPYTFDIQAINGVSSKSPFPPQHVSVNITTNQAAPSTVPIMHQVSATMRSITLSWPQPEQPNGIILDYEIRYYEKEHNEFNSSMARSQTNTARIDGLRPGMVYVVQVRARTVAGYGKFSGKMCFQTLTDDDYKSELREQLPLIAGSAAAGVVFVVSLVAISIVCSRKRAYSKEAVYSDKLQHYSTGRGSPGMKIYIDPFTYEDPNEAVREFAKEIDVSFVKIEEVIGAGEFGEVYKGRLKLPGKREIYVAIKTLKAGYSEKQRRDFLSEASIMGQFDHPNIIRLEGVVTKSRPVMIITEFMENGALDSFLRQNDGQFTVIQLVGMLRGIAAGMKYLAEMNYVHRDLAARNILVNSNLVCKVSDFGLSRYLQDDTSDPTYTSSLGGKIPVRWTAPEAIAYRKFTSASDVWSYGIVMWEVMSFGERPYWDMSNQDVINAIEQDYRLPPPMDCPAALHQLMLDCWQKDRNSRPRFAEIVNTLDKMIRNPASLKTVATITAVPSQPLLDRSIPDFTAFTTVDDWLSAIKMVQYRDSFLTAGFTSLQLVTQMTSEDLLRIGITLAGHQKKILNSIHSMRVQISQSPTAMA

[2] = molecular target: T2, Serine/threonine-protein kinase NLK (Homo sapiens) (UniProt Q9UBE8)
T2 sequence (whole entry): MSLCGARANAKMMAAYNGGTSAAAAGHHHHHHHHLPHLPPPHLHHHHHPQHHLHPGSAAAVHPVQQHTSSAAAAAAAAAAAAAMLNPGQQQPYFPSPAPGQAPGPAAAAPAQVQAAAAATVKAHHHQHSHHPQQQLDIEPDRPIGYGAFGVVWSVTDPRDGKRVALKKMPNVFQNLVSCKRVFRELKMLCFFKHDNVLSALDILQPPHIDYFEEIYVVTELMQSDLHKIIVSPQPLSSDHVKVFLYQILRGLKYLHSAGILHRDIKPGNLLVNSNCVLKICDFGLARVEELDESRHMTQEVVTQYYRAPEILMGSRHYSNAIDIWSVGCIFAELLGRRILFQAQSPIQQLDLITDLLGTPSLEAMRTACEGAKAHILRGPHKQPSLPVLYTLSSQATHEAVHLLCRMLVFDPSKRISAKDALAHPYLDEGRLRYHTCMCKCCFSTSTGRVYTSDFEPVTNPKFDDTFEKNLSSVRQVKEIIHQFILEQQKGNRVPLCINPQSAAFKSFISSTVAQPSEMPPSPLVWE

[3] = molecular target: T3, Phosphatidylinositol 3-kinase C2 domain-containing subunit gamma (Homo sapiens) (UniProt O75747)
T3 sequence (whole entry): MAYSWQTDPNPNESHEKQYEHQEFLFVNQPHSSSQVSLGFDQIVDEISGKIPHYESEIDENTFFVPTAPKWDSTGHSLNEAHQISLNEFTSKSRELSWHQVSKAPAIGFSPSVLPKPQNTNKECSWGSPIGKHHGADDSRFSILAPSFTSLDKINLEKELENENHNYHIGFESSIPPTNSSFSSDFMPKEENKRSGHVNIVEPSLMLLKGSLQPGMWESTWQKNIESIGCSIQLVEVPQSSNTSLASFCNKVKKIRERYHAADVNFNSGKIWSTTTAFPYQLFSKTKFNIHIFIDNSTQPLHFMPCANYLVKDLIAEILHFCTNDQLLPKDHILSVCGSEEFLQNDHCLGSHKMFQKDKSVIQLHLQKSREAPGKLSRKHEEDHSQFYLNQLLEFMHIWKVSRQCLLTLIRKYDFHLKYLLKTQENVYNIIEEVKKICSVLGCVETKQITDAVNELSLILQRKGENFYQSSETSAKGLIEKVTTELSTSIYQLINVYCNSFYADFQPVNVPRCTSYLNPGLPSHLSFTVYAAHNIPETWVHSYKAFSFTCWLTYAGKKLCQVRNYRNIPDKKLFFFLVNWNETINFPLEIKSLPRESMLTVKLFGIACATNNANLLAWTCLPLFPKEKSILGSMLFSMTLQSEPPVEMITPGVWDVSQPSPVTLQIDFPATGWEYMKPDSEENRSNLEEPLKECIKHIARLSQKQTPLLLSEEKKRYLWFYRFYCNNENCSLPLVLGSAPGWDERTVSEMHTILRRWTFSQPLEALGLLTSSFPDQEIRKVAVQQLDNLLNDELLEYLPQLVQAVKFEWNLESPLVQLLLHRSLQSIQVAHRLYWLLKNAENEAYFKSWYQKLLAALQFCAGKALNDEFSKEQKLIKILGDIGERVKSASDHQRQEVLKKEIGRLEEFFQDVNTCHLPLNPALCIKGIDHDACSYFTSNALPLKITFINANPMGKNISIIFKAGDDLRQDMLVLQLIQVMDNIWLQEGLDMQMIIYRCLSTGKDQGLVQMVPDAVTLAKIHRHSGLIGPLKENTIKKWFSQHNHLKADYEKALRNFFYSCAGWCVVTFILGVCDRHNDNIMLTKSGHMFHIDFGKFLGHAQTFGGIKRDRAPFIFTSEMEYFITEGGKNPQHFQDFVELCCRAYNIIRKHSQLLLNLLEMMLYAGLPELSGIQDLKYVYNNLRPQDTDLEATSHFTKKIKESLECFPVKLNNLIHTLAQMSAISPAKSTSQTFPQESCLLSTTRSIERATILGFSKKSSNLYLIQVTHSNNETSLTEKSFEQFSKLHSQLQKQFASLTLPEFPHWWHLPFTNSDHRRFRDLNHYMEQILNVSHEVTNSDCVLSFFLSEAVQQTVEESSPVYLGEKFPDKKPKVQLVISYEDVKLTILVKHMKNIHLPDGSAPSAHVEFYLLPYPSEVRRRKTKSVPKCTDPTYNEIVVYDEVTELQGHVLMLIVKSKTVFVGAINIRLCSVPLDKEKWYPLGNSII

[4] = molecular target: Focal adhesion kinase 1 (Homo sapiens) (UniProt Q05397)

Measured: % residual kinase activity

Sequence of Focal adhesion kinase 1 (Homo sapiens) (Q05397 2-1052 limits assumed): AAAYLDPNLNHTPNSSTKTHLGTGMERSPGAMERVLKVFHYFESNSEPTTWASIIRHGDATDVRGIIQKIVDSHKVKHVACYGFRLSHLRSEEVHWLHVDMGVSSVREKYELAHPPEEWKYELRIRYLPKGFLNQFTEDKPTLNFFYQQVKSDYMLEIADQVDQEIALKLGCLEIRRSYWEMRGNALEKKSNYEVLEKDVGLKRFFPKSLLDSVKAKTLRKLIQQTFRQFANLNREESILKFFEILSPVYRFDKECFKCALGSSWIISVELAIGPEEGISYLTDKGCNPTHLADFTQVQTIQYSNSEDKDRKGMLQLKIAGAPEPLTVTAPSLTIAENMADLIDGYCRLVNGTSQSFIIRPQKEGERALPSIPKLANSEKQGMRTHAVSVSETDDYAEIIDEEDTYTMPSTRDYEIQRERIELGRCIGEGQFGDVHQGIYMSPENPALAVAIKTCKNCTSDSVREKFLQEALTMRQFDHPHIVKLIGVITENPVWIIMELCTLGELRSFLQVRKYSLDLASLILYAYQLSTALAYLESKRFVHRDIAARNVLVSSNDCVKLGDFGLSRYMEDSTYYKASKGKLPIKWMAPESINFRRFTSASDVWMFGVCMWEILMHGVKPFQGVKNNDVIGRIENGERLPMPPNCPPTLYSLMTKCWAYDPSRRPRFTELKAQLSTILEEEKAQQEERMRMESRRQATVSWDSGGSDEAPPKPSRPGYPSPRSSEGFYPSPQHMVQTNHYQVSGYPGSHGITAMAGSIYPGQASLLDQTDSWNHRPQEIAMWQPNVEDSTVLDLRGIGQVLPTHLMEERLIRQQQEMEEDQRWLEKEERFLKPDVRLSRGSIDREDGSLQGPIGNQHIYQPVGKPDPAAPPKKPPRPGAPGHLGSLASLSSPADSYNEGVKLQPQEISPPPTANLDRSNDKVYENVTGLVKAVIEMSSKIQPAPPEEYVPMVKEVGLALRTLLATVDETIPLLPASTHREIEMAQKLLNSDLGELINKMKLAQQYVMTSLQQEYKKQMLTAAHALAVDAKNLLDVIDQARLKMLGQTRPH

CN1CCN(c2cnc3c(C4CCN(C(=O)c5ccc(OC(F)(F)F)cc5N)CC4)ncnc3c2)CC1 [BAY-885]
inactive: [1] 105% | [2] 111% | [3] 94% | [4] 101%
